Earlier results, collected in patent US7332526B2 (Allergan, Inc., priority 2003, dated 2008).
No end group written: not given here.

B1: TFF2: human trefoil factor family peptide containing two trefoil domains, produced by mucus-producing cells of stomach (protein, UniProt Q03403 24-129, looked up)
Trefoil factor 2: EKPSPCQCSRLSPHNRTNCGFPGITSDQCFDNGCCFDSSVTGVPWCFHPLPKQESDQCVMEVSDRRNCGYPGISPEECASRKCCFSNFIFEVPWCFFPKSVEDCHY

Experiments:
[1] = in vivo
[2] = test system: wounded corneal epithelial cells; conditions: in vitro, rabbit cells

Molecule | hyperemia and other irritating side effects compared to certain prostaglandins [1] | migration of wounded corneal epithelial cells [2]
CCNC(=O)CCC/C=C\C[C@@H]1[C@@H](/C=C/[C@@H](O)CCc2ccccc2)[C@H](O)C[C@@H]1O [bimatoprost] | significantly less hyperemia and other irritating side effects | –
TFF3: human trefoil factor family peptide with one trefoil domain, produced by goblet cells of small and large intestine (EEYVGLSANQCAVPAKDRVDCGYPHVTPKECNNRGCCFDSRIPGVPWCFKPLQEAECTF; ends and bridges not checked; cysteine pairing not given here; UniProt Q07654 22-80, looked up) | – | promote the migration
B1 | – | promote the migration
